Data as given in the supplement of paper PMC11208160.

Experiment: recombinant barcode read abundance after kanamycin selection (control-corrected) (log10(CPM+1)); higher = more efficient recombination; sequences stand for … in AGTGCAGAGAAAATCGGCCAGTTTTCTCTGCCTGCAGTCCGCATGCCGT…AGATTTATGCAGCGGACTGCCTTTCTCCCAAAGTGATAAACCGGACAGTATCATGGACCGGTTTTCCCGGTAATCCGTATTTGCAAGGTTGGTTTCACT; site = the 11-nt target
Outline: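 Recombination efficiency draws on barcodes counted at recombinant junctions in a pooled E. coli screen of targets paired with IS621 bridge RNA target-binding loops. The counts were converted to counts per million, averaged and corrected against the chloramphenicol/ampicillin LB agar control, then reported as log10(CPM+1). Selection plates held chloramphenicol/ampicillin/kanamycin with 0.1 mM IPTG, with two replicates per condition.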
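Note: IS621 recombinase and bridge RNA in Escherichia coli cells.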

In order of rising “recombinant barcode read abundance (log10)” value:
1. AGTACTACTTGGGTTCTAACCTGTTGCCT (site ACTACTACTAG)  0.0106
2. AGTATGTCTTGGGTTCTAACCTGTTGCCT (site GGTATGTCTAG)  0.0305
3. AGGCGCCCTTGGGTTCTAACCTGTTGCAT (site AGGCGCCCTCT)  0.041
4. AGGTCTACTTGGGTTCTAACCTGTTGCGG (site GAAAACTCTAG)  0.0493
5. AGGAGCCCTTGGGTTCTAACCTGTTGCGA (site CGGAGCCCTCC)  0.0589
6. AGTACTACTTGGGTTCTAACCTGTTGCCT (site AATACTACTAG)  0.0591
7. AGTAAGACTTGGGTTCTAACCTGTTGCGT (site AGTAAGACTAA)  0.062
8. AGTAGGGCTTGGGTTCTAACCTGTTGCAG (site CGTAGGGCTCG)  0.0704
9. AGTATCGCTTGGGTTCTAACCTGTTGCGG (site AGTGTCGCTCC)  0.0704
10. AGGGCGTCTTGGGTTCTAACCTGTTGCCG (site AGGGCATCTAG)  0.0811
11. AGGTACACTTGGGTTCTAACCTGTTGCAC (site TTCAGACCTAG)  0.0924
12. AGGACCACTTGGGTTCTAACCTGTTGCCA (site ATGACCGCTTG)  0.0948
13. AGGTCTACTTGGGTTCTAACCTGTTGCCA (site TTAGACCCTCT)  0.1
14. AGGGTGTCTTGGGTTCTAACCTGTTGCTG (site AGGGTGCCTTA)  0.105
15. AGGTCCACTTGGGTTCTAACCTGTTGCTG (site AGGCCCACTGA)  0.109
16. AGGTTCCCTTGGGTTCTAACCTGTTGCGG (site CTAGGAACTTA)  0.11
17. AGTATCGCTTGGGTTCTAACCTGTTGCGG (site AGTCTCGCTCC)  0.11
18. AGTATGTCTTGGGTTCTAACCTGTTGCCT (site TGTATGTCTAG)  0.116
19. AGGCGTCCTTGGGTTCTAACCTGTTGCCG (site AGGCGTCCTTG)  0.122
20. AGGGCACCTTGGGTTCTAACCTGTTGCAG (site CATCGGACTTC)  0.142
21. AGGTTCCCTTGGGTTCTAACCTGTTGCTG (site AGGTTCCCTGA)  0.142
22. AGTAAGACTTGGGTTCTAACCTGTTGCTT (site AGTAAGACTAT)  0.15
23. AGTCACACTTGGGTTCTAACCTGTTGCAG (site TTGTGAGCTGC)  0.153
24. AGGTTCCCTTGGGTTCTAACCTGTTGCTG (site AGGTTCCCTAA)  0.154
25. AGGATTCCTTGGGTTCTAACCTGTTGCCT (site ATGATTCCTAG)  0.158
26. AGTACTACTTGGGTTCTAACCTGTTGCCT (site ATTACTACTAG)  0.162
27. AGGCCCACTTGGGTTCTAACCTGTTGCTC (site AGGTCCACTCA)  0.166
28. AGGATTCCTTGGGTTCTAACCTGTTGCCT (site AAGATTCCTAG)  0.171
29. AGGAGTCCTTGGGTTCTAACCTGTTGCGT (site AGCAGTCCTAC)  0.182
30. AGTATGTCTTGGGTTCTAACCTGTTGCCT (site CGTATGTCTAG)  0.184
31. AGGCCGTCTTGGGTTCTAACCTGTTGCGT (site AGGCAGTCTAG)  0.195
32. AGTAAGACTTGGGTTCTAACCTGTTGCTT (site AGTAAGACTAG)  0.202
33. AGGCGCCCTTGGGTTCTAACCTGTTGCAT (site AGGCGCCCTGT)  0.219
34. AGGCGTCCTTGGGTTCTAACCTGTTGCCG (site AGGCGTCCTGG)  0.227
35. AGGTCCTCTTGGGTTCTAACCTGTTGCCT (site AGGTCCTCTAC)  0.233
36. AGGCGCCCTTGGGTTCTAACCTGTTGCAT (site AGGCGCCCTTT)  0.244
37. AGTATCGCTTGGGTTCTAACCTGTTGCGG (site AGTTTCGCTCC)  0.246
38. AGGTGTCCTTGGGTTCTAACCTGTTGCGA (site TATATATCTAT)  0.247
39. AGGCGTCCTTGGGTTCTAACCTGTTGCCT (site AGGCGTCCTCG)  0.249
40. AGTACTACTTGGGTTCTAACCTGTTGCCT (site AGTACTACTAG)  0.25
41. AGGGTCACTTGGGTTCTAACCTGTTGCCT (site AAGGTCACTAG)  0.274
42. AGTAAGACTTGGGTTCTAACCTGTTGCTT (site AGTAAGACTAA)  0.281
43. AGTAGGCCTTGGGTTCTAACCTGTTGCGG (site GGTAGGACTCC)  0.303
44. AGTAAGACTTGGGTTCTAACCTGTTGCTT (site AGTAAGACTAC)  0.354
45. AGGTTCCCTTGGGTTCTAACCTGTTGCTG (site AGGTTCCCTTA)  0.358
46. AGGCGTCCTTGGGTTCTAACCTGTTGCCT (site AGGCGTCCTTG)  0.374
47. AGTAAGACTTGGGTTCTAACCTGTTGCGT (site AGTAAGACTAG)  0.482
48. AGGTCTACTTGGGTTCTAACCTGTTGCCA (site AGGTCTACTTG)  0.6
49. AGGATTCCTTGGGTTCTAACCTGTTGCCT (site ACGATTCCTAG)  0.634
50. AGGGTCACTTGGGTTCTAACCTGTTGCCT (site ACGGTCACTAG)  0.653
51. AGGTCCTCTTGGGTTCTAACCTGTTGCCT (site AGGTCCTCTAT)  0.703
52. AGGCGTCCTTGGGTTCTAACCTGTTGCCG (site AGGCGTCCTAG)  0.964
53. AGGCGTCCTTGGGTTCTAACCTGTTGCCT (site AGGCGTCCTGG)  1.03
54. AGGTCCTCTTGGGTTCTAACCTGTTGCCT (site AGGTCCTCTAA)  1.05
55. AGGGTCACTTGGGTTCTAACCTGTTGCCT (site ATGGTCACTAG)  1.06
56. AGTATCGCTTGGGTTCTAACCTGTTGCGG (site AGTATCGCTCC)  1.11
57. AGTATGTCTTGGGTTCTAACCTGTTGCCT (site AGTATGTCTAG)  1.13
58. AGGATTCCTTGGGTTCTAACCTGTTGCCT (site AGGATTCCTAG)  1.16
59. AGTCACACTTGGGTTCTAACCTGTTGCTG (site AGTCACACTCA)  1.18
60. AGTAAGACTTGGGTTCTAACCTGTTGCGT (site AGTAAGACTAT)  1.22
61. AGGCGTCCTTGGGTTCTAACCTGTTGCCG (site AGGCGTCCTCG)  1.24
62. AGGCGCCCTTGGGTTCTAACCTGTTGCAT (site AGGCGCCCTAT)  1.29
63. AGGGATCCTTGGGTTCTAACCTGTTGCGT (site ATGGATCCTAC)  1.29
64. AGGTCCACTTGGGTTCTAACCTGTTGCTG (site AGGTCCACTCA)  1.31
65. AGTAGGCCTTGGGTTCTAACCTGTTGCGG (site AGTAGGCCTCC)  1.4
66. AGGCGTCCTTGGGTTCTAACCTGTTGCCT (site AGGCGTCCTAG)  1.44
67. AGTCACACTTGGGTTCTAACCTGTTGCAG (site AGTCACACTCT)  1.44
68. AGGGCACCTTGGGTTCTAACCTGTTGCAG (site AGGGCACCTCT)  1.56
69. AGGAGTCCTTGGGTTCTAACCTGTTGCTG (site AGGAATCCTAA)  1.57
70. AGGTCTACTTGGGTTCTAACCTGTTGCGG (site AGGTCTACTCC)  1.63
71. AGGGCGTCTTGGGTTCTAACCTGTTGCCG (site AGGGCGTCTCG)  1.69
72. AGGCCCACTTGGGTTCTAACCTGTTGCTC (site AGGCCCACTGA)  1.81
73. AGGTTCCCTTGGGTTCTAACCTGTTGCGG (site AGGTTCCCTCC)  1.96
74. AGGTCCTCTTGGGTTCTAACCTGTTGCCT (site AGGTCCTCTAG)  2.06
75. AGGAGTCCTTGGGTTCTAACCTGTTGCTG (site AGGAGTCCTCA)  2.08
76. AGGTACACTTGGGTTCTAACCTGTTGCAC (site AGGTACACTGT)  2.22
77. AGGGTCACTTGGGTTCTAACCTGTTGCCT (site AGGGTCACTAG)  2.23
78. AGTAAGACTTGGGTTCTAACCTGTTGCGT (site AGTAAGACTAC)  2.25
79. AGGTGTCCTTGGGTTCTAACCTGTTGCGA (site AGGTGTCCTTC)  2.36
80. AGGCCGTCTTGGGTTCTAACCTGTTGCGT (site AGGCCGTCTAC)  2.43
81. AGGTTCCCTTGGGTTCTAACCTGTTGCTG (site AGGTTCCCTCA)  2.46
82. AGGGTGTCTTGGGTTCTAACCTGTTGCTG (site AGGGTGTCTCA)  2.55
83. AGGAGTCCTTGGGTTCTAACCTGTTGCGT (site AGGAGTCCTAC)  2.57
84. AGTAGGGCTTGGGTTCTAACCTGTTGCAG (site AGTAGGGCTCT)  2.65
85. AGGAGCCCTTGGGTTCTAACCTGTTGCGA (site AGGAGCCCTTC)  2.84
86. AGGGATCCTTGGGTTCTAACCTGTTGCGT (site AGGGATCCTAC)  3.09
